Results: ChEMBL document CHEMBL1201862, “PubChem BioAssay data set” (2004)
Each block holds one compound with its values, some of them ahead of it. Calls of active or inactive are those of the source.

Assays:
Assay type in all cases: functional
[1] = biological target: Protein disulfide-isomerase (Homo sapiens, UniProt P07237); test: PDI inhibitors, insulin aggregation turbidity, dose response, biochemical, absorbance, cherry-picked samples (AID 602350)
[2] = biological target: Cyclin-dependent kinase 1 (Homo sapiens, UniProt P06493);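 further: Kinome-wide panel profiling, with the target listed as panel member CDC2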
Cyclin-dependent kinase 1, sequence (P06493 whole entry): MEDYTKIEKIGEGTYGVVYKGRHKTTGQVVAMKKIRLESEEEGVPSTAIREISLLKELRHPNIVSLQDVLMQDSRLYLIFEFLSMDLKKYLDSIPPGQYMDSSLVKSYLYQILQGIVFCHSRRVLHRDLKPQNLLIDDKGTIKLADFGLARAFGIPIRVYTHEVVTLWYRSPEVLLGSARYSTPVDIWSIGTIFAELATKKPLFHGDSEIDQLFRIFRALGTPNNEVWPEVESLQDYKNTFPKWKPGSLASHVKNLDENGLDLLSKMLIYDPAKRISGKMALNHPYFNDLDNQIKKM

[3] = biological target: Mitogen-activated protein kinase 1 (Homo sapiens, UniProt P28482)
Aurora kinase B = Aurora kinase B (Homo sapiens, UniProt Q96GD4)
[4] = biological target: Mitogen-activated protein kinase 13 (Homo sapiens, UniProt O15264)
Mitogen-activated protein kinase 13, sequence (O15264 whole entry): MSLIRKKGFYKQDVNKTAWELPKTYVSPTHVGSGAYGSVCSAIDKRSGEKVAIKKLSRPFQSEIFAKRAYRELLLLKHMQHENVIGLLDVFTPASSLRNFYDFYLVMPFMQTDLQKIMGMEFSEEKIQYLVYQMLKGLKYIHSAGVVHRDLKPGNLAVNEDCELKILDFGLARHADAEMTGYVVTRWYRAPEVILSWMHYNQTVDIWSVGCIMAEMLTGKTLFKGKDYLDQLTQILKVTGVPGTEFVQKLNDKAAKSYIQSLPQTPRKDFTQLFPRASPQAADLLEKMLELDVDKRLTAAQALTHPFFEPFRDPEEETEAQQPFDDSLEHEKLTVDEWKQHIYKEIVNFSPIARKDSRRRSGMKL

[5] = biological target: Proto-oncogene tyrosine-protein kinase ROS (Homo sapiens, UniProt P08922);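 further: ROS1 tested as one member of a kinome-wide kinase panel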
Proto-oncogene tyrosine-protein kinase ROS, sequence (P08922 whole entry): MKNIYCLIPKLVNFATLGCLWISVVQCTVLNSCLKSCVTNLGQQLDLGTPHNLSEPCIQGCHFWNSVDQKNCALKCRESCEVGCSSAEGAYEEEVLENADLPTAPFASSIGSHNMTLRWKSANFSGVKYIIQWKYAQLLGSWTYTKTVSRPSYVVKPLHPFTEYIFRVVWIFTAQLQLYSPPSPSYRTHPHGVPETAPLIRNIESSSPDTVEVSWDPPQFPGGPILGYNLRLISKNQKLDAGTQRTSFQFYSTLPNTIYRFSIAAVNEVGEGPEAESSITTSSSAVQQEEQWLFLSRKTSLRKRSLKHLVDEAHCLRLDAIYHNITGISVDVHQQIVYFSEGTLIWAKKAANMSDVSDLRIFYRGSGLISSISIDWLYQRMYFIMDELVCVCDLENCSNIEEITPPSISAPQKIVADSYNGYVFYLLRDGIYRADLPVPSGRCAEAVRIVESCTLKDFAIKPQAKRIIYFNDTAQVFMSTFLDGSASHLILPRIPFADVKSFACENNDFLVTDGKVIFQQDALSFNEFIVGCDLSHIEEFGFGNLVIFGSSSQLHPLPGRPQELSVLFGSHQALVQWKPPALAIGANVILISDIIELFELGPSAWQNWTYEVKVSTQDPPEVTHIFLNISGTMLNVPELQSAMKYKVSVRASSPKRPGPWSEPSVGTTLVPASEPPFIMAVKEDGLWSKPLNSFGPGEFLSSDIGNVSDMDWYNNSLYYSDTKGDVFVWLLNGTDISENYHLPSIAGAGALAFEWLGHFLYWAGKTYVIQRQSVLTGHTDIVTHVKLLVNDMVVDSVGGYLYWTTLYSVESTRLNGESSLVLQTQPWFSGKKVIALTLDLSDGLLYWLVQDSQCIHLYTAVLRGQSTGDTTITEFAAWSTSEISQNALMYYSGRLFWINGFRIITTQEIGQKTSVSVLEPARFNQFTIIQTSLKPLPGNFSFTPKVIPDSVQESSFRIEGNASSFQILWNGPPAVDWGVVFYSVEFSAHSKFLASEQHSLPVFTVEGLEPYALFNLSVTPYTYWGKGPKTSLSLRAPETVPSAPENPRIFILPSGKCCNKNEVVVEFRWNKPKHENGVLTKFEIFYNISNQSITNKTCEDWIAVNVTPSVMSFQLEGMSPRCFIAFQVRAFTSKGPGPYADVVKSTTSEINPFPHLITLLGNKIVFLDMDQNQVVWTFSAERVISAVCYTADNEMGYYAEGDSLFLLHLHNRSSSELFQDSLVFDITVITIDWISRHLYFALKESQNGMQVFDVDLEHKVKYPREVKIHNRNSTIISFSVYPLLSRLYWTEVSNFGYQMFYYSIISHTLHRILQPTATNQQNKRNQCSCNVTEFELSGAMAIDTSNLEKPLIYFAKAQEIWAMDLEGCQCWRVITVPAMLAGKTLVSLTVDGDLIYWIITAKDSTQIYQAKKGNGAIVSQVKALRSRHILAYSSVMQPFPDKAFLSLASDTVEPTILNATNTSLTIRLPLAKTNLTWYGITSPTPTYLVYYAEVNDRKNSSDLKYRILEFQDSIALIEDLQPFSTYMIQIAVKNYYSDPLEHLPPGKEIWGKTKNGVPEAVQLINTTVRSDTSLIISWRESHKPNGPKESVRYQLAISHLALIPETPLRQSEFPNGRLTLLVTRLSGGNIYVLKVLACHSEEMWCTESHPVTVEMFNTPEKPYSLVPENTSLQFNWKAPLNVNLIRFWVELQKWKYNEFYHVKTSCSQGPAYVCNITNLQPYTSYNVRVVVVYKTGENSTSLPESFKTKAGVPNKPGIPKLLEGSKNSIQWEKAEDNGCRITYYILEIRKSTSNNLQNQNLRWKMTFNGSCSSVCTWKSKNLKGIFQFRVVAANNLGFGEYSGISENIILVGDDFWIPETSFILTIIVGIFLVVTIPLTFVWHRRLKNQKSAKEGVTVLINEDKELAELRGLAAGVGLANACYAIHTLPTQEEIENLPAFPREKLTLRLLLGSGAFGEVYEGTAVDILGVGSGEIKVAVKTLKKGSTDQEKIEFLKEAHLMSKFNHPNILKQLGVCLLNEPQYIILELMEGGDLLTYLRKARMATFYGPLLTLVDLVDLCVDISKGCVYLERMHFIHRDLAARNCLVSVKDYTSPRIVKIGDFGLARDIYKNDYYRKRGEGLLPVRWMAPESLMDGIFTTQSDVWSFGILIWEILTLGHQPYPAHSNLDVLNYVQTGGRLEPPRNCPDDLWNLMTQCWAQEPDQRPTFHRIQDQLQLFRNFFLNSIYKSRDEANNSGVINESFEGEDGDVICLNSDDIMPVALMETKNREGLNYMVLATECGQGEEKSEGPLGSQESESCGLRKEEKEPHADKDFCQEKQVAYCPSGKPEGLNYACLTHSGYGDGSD

[6] = biological target: Leucine-rich repeat serine/threonine-protein kinase 2 (Homo sapiens, UniProt Q5S007);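 further: value from a broad kinome-wide panel profiling study in which LRRK2 was one of the kinases tested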
[7] = biological target: Dual specificity protein kinase CLK4 (Homo sapiens, UniProt Q9HAZ1)
[8] = biological target: cAMP-dependent protein kinase catalytic subunit alpha (Homo sapiens, UniProt P17612)
[9] = nonselective inhibitors of cellular cAMP signaling, dose response, counter-screen for MC4R biased antagonist project, cell-based, TR-FRET cAMP detection (AID 602305);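 further: U2OS cells stimulated with forskolin near its EC80 as the cAMP inducer; potency is for inhibition of forskolin-stimulated cAMP signaling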
Melanocortin receptor 4 = Melanocortin receptor 4 (Homo sapiens, UniProt P32245); test: MC4R antagonist potency on cAMP, dose response, cell-based, TR-FRET, biased antagonists (AID 602298);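 further: antagonist potency against agonist-stimulated cAMP production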
Melanocortin receptor 4, sequence (P32245 whole entry): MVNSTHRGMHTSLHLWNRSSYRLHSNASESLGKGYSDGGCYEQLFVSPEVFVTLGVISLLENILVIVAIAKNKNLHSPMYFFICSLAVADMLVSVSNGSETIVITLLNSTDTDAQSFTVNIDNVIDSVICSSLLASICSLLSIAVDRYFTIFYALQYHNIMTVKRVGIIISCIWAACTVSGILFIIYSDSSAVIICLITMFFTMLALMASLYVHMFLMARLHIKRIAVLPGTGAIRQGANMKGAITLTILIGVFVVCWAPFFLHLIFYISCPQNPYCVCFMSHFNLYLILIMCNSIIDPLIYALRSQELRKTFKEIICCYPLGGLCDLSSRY

Orexin receptor type 2 [10] = biological target: T1, Orexin receptor type 2 (Homo sapiens, UniProt O43614); test: Counterscreen assay for antagonists of the orexin 1 receptor (OX1R; HCRTR1): Fluorescence-based cell-based dose response assay for antagonists of the orexin 2 receptor (OX2R; HCRTR2), run by assay provider.
T1 sequence (O43614 whole entry): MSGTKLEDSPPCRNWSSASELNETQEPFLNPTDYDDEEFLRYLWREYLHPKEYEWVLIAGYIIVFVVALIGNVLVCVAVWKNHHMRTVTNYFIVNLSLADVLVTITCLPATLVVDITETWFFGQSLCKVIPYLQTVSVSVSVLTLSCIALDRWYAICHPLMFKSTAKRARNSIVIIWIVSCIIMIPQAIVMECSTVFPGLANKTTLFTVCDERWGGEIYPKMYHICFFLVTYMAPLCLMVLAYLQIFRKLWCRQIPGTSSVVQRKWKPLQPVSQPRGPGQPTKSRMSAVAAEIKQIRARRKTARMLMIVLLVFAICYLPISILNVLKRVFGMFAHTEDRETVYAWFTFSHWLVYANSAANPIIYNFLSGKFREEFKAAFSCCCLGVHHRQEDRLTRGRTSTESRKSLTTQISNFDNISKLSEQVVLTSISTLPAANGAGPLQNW

CHO-K1 = test: (§1) Counterscreen for antagonists of the orexin 1 receptor (OX1R; HCRTR1): Homogeneous time resolved fluorescence (HTRF)-based cell-based dose response assay to identify antagonists of the parental CHO-K1 cell line. [Related pubchem assays (depositor defined):AID434989, AID435008, AID463079, AID485270, AID492963, AID492964, AID492965, AID493232, AID504699, AID504701]; conditions: Cricetulus griseus
[11] = as §1, with “Fluorescence-based” for “Homogeneous time resolved fluorescence (HTRF)-based”, “cell-based high throughput” for “cell-based”, “CHO” for “CHO-K1”
[12] = biological target: T2, Orexin/Hypocretin receptor type 1 (Homo sapiens, UniProt O43613); test: (§2) Fluorescence-based cell-based high throughput dose response assay for antagonists of the orexin 1 receptor (OX1R; HCRTR1). [Related pubchem assays (depositor defined):AID434989, AID435008, AID463079, AID485270, AID492963, AID492964, AID492965, AID493232, AID504717, AID504718]
T2 sequence (O43613 whole entry): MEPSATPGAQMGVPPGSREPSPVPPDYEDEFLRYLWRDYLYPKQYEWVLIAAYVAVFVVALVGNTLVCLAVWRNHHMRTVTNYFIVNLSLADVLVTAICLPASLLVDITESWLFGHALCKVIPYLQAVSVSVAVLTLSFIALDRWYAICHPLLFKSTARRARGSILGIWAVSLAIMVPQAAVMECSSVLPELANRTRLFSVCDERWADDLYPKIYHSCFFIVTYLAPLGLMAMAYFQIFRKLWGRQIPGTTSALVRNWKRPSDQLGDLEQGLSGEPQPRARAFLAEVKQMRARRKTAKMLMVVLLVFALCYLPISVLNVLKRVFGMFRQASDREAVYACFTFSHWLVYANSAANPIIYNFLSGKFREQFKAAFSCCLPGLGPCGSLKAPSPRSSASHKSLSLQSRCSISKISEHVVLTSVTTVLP

Orexin receptor type 2 [13] = biological target: T1, Orexin receptor type 2; test: Counterscreen assay for antagonists of the orexin 1 receptor (OX1R; HCRTR1): Homogeneous Time Resolved Fluorescence (HTRF)-based cell-based dose response assay for antagonists of the orexin 2 receptor (OX2R; HCRTR2), run by assay provider.
[14] = biological target: T2, Orexin/Hypocretin receptor type 1; test: as §2, with “Homogeneous Time Resolved Fluorescence (HTRF)-based” for “Fluorescence-based”
[15] = biological target: T3, DNA dC->dU-editing enzyme APOBEC-3A (Homo sapiens, UniProt P31941); test: SAR analysis of small molecule inhibitors of APOBEC3A DNA Deaminase via a fluorescence-based single-stranded DNA deaminase assay - Set 2.; conditions: read-out: IC50_Mean
T3 sequence (P31941 whole entry): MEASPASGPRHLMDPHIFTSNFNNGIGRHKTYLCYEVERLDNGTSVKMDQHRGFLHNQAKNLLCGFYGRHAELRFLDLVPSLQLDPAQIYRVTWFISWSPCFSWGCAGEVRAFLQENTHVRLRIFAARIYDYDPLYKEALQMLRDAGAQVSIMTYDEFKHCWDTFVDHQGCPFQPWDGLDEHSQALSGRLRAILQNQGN

[16] = biological target: T4, DNA dC->dU-editing enzyme APOBEC-3G (Homo sapiens, UniProt Q9HC16); test: APOBEC3G deaminase inhibitors, SAR follow-up, biochemical, fluorescence, single-stranded DNA substrate (AID 602136); conditions: read-out: IC50_Mean
T4 sequence (Q9HC16 whole entry): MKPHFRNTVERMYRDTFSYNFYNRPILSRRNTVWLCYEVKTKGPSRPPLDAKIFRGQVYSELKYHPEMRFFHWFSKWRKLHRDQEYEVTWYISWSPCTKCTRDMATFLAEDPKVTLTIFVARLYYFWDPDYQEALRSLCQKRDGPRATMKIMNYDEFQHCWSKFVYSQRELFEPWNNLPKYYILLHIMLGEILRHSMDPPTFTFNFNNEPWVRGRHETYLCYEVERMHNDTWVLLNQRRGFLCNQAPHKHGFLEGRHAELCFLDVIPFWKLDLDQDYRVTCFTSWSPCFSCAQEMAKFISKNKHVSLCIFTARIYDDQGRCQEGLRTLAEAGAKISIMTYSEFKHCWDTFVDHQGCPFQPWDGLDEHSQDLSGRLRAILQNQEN

[17] = biological target: T3, DNA dC->dU-editing enzyme APOBEC-3A; test: SAR analysis of small molecule inhibitors of APOBEC3A DNA Deaminase via a fluorescence-based single-stranded DNA deaminase assay.; conditions: read-out: IC50_Mean
[18] = biological target: T4, DNA dC->dU-editing enzyme APOBEC-3G; test: Dose Response confirmation of small molecule APOBEC3G DNA Deaminase Inhibitors via a fluorescence-based single-stranded DNA deaminase assay. [Related pubchem assays (depositor defined):AID493012, AID493028]
[19] = biological target: T4, DNA dC->dU-editing enzyme APOBEC-3G; test: SAR analysis of small molecule inhibitors of APOBEC3G DNA Deaminase via a fluorescence-based single-stranded DNA deaminase assay - Set 2.; conditions: read-out: IC50_Mean
[20] = biological target: T3, DNA dC->dU-editing enzyme APOBEC-3A; test: APOBEC3A DNA deaminase inhibitors, dose response, biochemical (AID 504722)

AC50 [1]: 19.5 µM (active)
Structure (SMILES): COc1ccc(N2CCN(CC(=O)c3ccc(O)c(C)c3O)CC2)cc1

Ki [2]: 0.0631 µM (active)
Ki [3]: 0.0631 µM (active)
Ki (Aurora kinase B): 0.0631 µM (active)
Ki [4]: > 7.94 µM (inactive)
Ki [5]: 0.0126 µM (active)
Ki [6]: 0.158 µM (active)
Ki [7]: 0.0631 µM (active)
Ki [8]: 0.158 µM (active)
Structure (SMILES): CN(c1ncccc1CNc1nc(Nc2ccc3c(c2)CC(=O)N3)ncc1C(F)(F)F)S(C)(=O)=O [PF-00562271]

Structure (SMILES): Cc1ccc(CNC(=O)COC(=O)Cn2nc(C)c([N+](=O)[O-])c2C)cc1
IC50 [9]: > 64.6 µM (inactive)
IC50 (Melanocortin receptor 4): 14.4 µM (inactive)

Structure (SMILES): CCSc1ccc([C@@H]2[C@H]3C(=O)N(CC)C(=O)[C@H]3[C@]3(C(=O)OC)CCCCN23)cc1OC
IC50 (Orexin receptor type 2 [10]): 6.4 µM (active)
IC50 (CHO-K1): > 66.3 µM (inactive)
IC50 [11]: > 49.8 µM (inactive)
IC50 [12]: 12.4 µM (inactive)
IC50 (Orexin receptor type 2 [13]): > 50 µM (inactive)
IC50 [14]: 2.65 µM (active)

Structure (SMILES): S=c1[nH]nc2c3c4c(sc3ncn12)CCCC4
IC50 [15]: > 99 µM (inactive)
IC50 [16]: 3.15 µM (active)
IC50 [17]: > 99 µM (inactive)
IC50 [18]: 0.992 µM (active)
IC50 [19]: > 99 µM (inactive)
IC50 [20]: > 100 µM (inactive)
